Data taken from publication PMC5218480 (PLoS ONE, 2017).

Test system: MV-4-11 cells
Assay: Gene expression microarray analysis (Affymetrix PrimeView) and GSEA
Assay type: cell-based, human
Set-up: RFU PODN (11730768_x_at) / Fold change /veh PODN (11730768_x_at) / RFU LINC00158 (11744669_a_at) / Fold change /veh LINC00158 (11744669_a_at) / RFU DUSP10 (11751237_a_at) / Fold change /veh DUSP10 (11751237_a_at) / RFU ID3 (11757404_x_at) / Fold change /veh ID3 (11757404_x_at) / RFU PLEKHG5 (11737974_s_at) / Fold change /veh PLEKHG5 (11737974_s_at) / RFU LRRC4B (11730491_at) / Fold change /veh LRRC4B (11730491_at) / RFU GIMAP4 (11747438_a_at) / Fold change /veh GIMAP4 (11747438_a_at) / RFU KRT8 (11758183_x_at) / Fold change /veh KRT8 (11758183_x_at) / RFU CNN1 (11734310_a_at) / Fold change /veh CNN1 (11734310_a_at) / RFU VPS37D (11726825_at) / Fold change /veh VPS37D (11726825_at) / RFU C10orf10 (11716522_x_at) / Fold change /veh C10orf10 (11716522_x_at) / RFU KIR2DL2 /// KIR2DL4 /// KIR2DL5A /// KIR2DL5B /// KIR2DS1 /// KIR2DS2 /// KIR2DS3 /// KIR2DS4 /// KIR3DL3 /// KIR3DL3 /// KIR3DS1 (11738374_at) / Fold change /veh KIR2DL2 /// KIR2DL4 /// KIR2DL5A /// KIR2DL5B /// KIR2DS1 /// KIR2DS2 /// KIR2DS3 /// KIR2DS4 /// KIR3DL3 /// KIR3DL3 /// KIR3DS1 (11738374_at) / RFU C1QL1 (11718748_at) / Fold change /veh C1QL1 (11718748_at) / RFU TMPRSS4 (11747572_a_at) / Fold change /veh TMPRSS4 (11747572_a_at) / RFU HAMP (11756126_x_at) / Fold change /veh HAMP (11756126_x_at) / RFU RNFT2 (11725882_a_at) / Fold change /veh RNFT2 (11725882_a_at) / RFU NR4A2 (11747474_a_at) / Fold change /veh NR4A2 (11747474_a_at) / RFU ABCC12 (11746883_a_at) / Fold change /veh ABCC12 (11746883_a_at) / RFU TMEM136 (11760407_x_at) / Fold change /veh TMEM136 (11760407_x_at) / RFU CLDN22 /// WWC2 (11732394_at) / Fold change /veh CLDN22 /// WWC2 (11732394_at) / RFU HLA-DPB1 (11760878_x_at) / Fold change /veh HLA-DPB1 (11760878_x_at) / RFU SPINT1 (11716480_a_at) / Fold change /veh SPINT1 (11716480_a_at) / RFU GAP43 (11754022_s_at) / Fold change /veh GAP43 (11754022_s_at) / RFU A4GNT (11735810_at) / Fold change /veh A4GNT (11735810_at) / RFU PRB3 (11715151_x_at) / Fold change /veh PRB3 (11715151_x_at) / RFU TUBB4B (11761932_at) / Fold change /veh TUBB4B (11761932_at) / RFU CAPN14 (11732068_a_at) / Fold change /veh CAPN14 (11732068_a_at) / RFU TMCC2 (11721928_a_at) / Fold change /veh TMCC2 (11721928_a_at) / RFU IRGQ (11745062_a_at) / Fold change /veh IRGQ (11745062_a_at) / RFU FAM174B (11720279_a_at) / Fold change /veh FAM174B (11720279_a_at) / RFU TMPRSS4 (11748680_a_at) / Fold change /veh TMPRSS4 (11748680_a_at) / RFU FAM212B (11763350_a_at) / Fold change /veh FAM212B (11763350_a_at) / RFU PLEKHG5 (11743358_a_at) / Fold change /veh PLEKHG5 (11743358_a_at) / RFU ZSCAN30 (11745921_a_at) / Fold change /veh ZSCAN30 (11745921_a_at) / RFU CMKLR1 (11741424_a_at) / Fold change /veh CMKLR1 (11741424_a_at) / RFU LOC101060620 /// MAPK8IP1 (11723275_at) / Fold change /veh LOC101060620 /// MAPK8IP1 (11723275_at) / RFU SPTSSB (11747773_x_at) / Fold change /veh SPTSSB (11747773_x_at) / RFU PRSS12 (11739890_at) / Fold change /veh PRSS12 (11739890_at) / RFU BIN1 (11741810_x_at) / Fold change /veh BIN1 (11741810_x_at) / RFU WNT11 (11732464_a_at) / Fold change /veh WNT11 (11732464_a_at) / RFU C10orf10 (11716521_a_at) / Fold change /veh C10orf10 (11716521_a_at) / RFU C5orf56 (11738089_at) / Fold change /veh C5orf56 (11738089_at) / RFU CYB561 (11721691_x_at) / Fold change /veh CYB561 (11721691_x_at) / RFU ANKRD19P (11752326_a_at) / Fold change /veh ANKRD19P (11752326_a_at) / RFU OR2T12 /// OR2T33 /// OR2T8 (11738714_s_at) / Fold change /veh OR2T12 /// OR2T33 /// OR2T8 (11738714_s_at) / RFU VCAN (11748164_a_at) / Fold change /veh VCAN (11748164_a_at) / RFU JSRP1 (11732532_at) / Fold change /veh JSRP1 (11732532_at) / RFU KRTAP10-11 (11738290_x_at) / Fold change /veh KRTAP10-11 (11738290_x_at) / RFU MYO3A (11730013_a_at) / Fold change /veh MYO3A (11730013_a_at) / RFU EBF3 (11725865_a_at) / Fold change /veh EBF3 (11725865_a_at) / RFU CAMK2N1 (11719241_x_at) / Fold change /veh CAMK2N1 (11719241_x_at) / RFU C5orf56 (11738088_a_at) / Fold change /veh C5orf56 (11738088_a_at) / RFU OLFML3 (11715873_a_at) / Fold change /veh OLFML3 (11715873_a_at) / RFU LOC100653217 /// NTM (11731650_a_at) / Fold change /veh LOC100653217 /// NTM (11731650_a_at) / RFU MAPK11 (11762145_a_at) / Fold change /veh MAPK11 (11762145_a_at) / RFU FIZ1 (11724087_x_at) / Fold change /veh FIZ1 (11724087_x_at) / RFU OASL (11726364_x_at) / Fold change /veh OASL (11726364_x_at) / RFU SOX15 (11748057_x_at) / Fold change /veh SOX15 (11748057_x_at) / RFU CD79A (11719716_a_at) / Fold change /veh CD79A (11719716_a_at) / RFU HIST1H1D (11736915_at) / Fold change /veh HIST1H1D (11736915_at) / RFU CASKIN2 (11723855_a_at) / Fold change /veh CASKIN2 (11723855_a_at) / RFU LOC730098 (11760151_x_at) / Fold change /veh LOC730098 (11760151_x_at) / RFU OR4N2 (11742367_at) / Fold change /veh OR4N2 (11742367_at) / RFU PRRT2 (11749266_a_at) / Fold change /veh PRRT2 (11749266_a_at) / RFU SNX32 (11753110_a_at) / Fold change /veh SNX32 (11753110_a_at) / RFU CDHR5 (11726645_a_at) / Fold change /veh CDHR5 (11726645_a_at) / RFU RCAN1 (11760418_a_at) / Fold change /veh RCAN1 (11760418_a_at) / RFU FAM167A (11723789_a_at) / Fold change /veh FAM167A (11723789_a_at) / RFU FAM26E (11764081_at) / Fold change /veh FAM26E (11764081_at) / RFU ISYNA1 (11749810_s_at) / Fold change /veh ISYNA1 (11749810_s_at) / RFU ACY1 (11761880_at) / Fold change /veh ACY1 (11761880_at) / RFU 11764098_at / Fold change /veh 11764098_at / RFU SAMD14 (11745864_x_at) / Fold change /veh SAMD14 (11745864_x_at) / RFU NPB (11741838_a_at) / Fold change /veh NPB (11741838_a_at) / RFU TMPRSS6 (11731388_a_at) / Fold change /veh TMPRSS6 (11731388_a_at) / RFU KRTAP10-2 (11738614_at) / Fold change /veh KRTAP10-2 (11738614_at) / RFU ARHGAP8 /// PRR5-ARHGAP8 (11727945_x_at) / Fold change /veh ARHGAP8 /// PRR5-ARHGAP8 (11727945_x_at) / RFU KRTAP5-7 /// NADSYN1 (11734609_at) / Fold change /veh KRTAP5-7 /// NADSYN1 (11734609_at) / RFU RASL12 (11751679_a_at) / Fold change /veh RASL12 (11751679_a_at) / RFU CDKN2B (11736163_a_at) / Fold change /veh CDKN2B (11736163_a_at) / RFU PRF1 (11729649_at) / Fold change /veh PRF1 (11729649_at) / RFU, ZNF638 /// ZNF638-IT1 / Fold change vs veh, ZNF638 /// ZNF638-IT1 / RFU, PANK3 / Fold change vs veh, PANK3 / RFU, SH3YL1 / Fold change vs veh, SH3YL1 / RFU, ZEB2 / Fold change vs veh, ZEB2 / RFU, NRIP1 / Fold change vs veh, NRIP1 / RFU, PTTG1IP / Fold change vs veh, PTTG1IP / RFU, CAPN2 / Fold change vs veh, CAPN2 / RFU, MED14 / Fold change vs veh, MED14 / RFU, SNORA58 / Fold change vs veh, SNORA58 / RFU, C1orf63 / Fold change vs veh, C1orf63 / RFU, LRRFIP1 / Fold change vs veh, LRRFIP1 / RFU, NDUFAF7 / Fold change vs veh, NDUFAF7 / RFU, SLC12A2 / Fold change vs veh, SLC12A2 / RFU, IBTK / Fold change vs veh, IBTK / RFU, ESF1 / Fold change vs veh, ESF1 / Fold change vs veh, TMEM50B / RFU, TAOK1 / Fold change vs veh, TAOK1 / RFU, ACBD3 / Fold change vs veh, ACBD3 / RFU, TMA16 / Fold change vs veh, TMA16 / RFU, RWDD3 / Fold change vs veh, RWDD3 / RFU, BCAT1 / Fold change vs veh, BCAT1 / RFU, EDEM3 / Fold change vs veh, EDEM3 / RFU, TMEM33 / Fold change vs veh, TMEM33 / RFU, WDR75 / Fold change vs veh, WDR75 / RFU, AHCTF1 / Fold change vs veh, AHCTF1 / RFU, TFRC / Fold change vs veh, TFRC / RFU, ZDHHC17 / Fold change vs veh, ZDHHC17 / RFU, NOM1 / Fold change vs veh, NOM1 / RFU, ARL8B / Fold change vs veh, ARL8B / RFU, ZBTB11 / Fold change vs veh, ZBTB11 / RFU, TAMM41 / Fold change vs veh, TAMM41 / RFU, KIAA1704 /// LOC100996395 / Fold change vs veh, KIAA1704 /// LOC100996395 / RFU, ING1 / Fold change vs veh, ING1 / RFU, TRMT61B / Fold change vs veh, TRMT61B / RFU, FUBP3 / Fold change vs veh, FUBP3 / RFU, TP53 / Fold change vs veh, TP53 / RFU, TNKS2 / Fold change vs veh, TNKS2 / RFU, ZFP14 / Fold change vs veh, ZFP14 / RFU, ACTR2 / Fold change vs veh, ACTR2 / RFU, PPP3R1 / Fold change vs veh, PPP3R1 / RFU, PIK3R1 / Fold change vs veh, PIK3R1 / RFU, HNRNPA1 / Fold change vs veh, HNRNPA1 / RFU, RNF170 / Fold change vs veh, RNF170 / RFU, ZNF28 / Fold change vs veh, ZNF28 / RFU, RNGTT / Fold change vs veh, RNGTT / RFU, OGT / Fold change vs veh, OGT / RFU, BRD1 / Fold change vs veh, BRD1 / RFU, MARS / Fold change vs veh, MARS / RFU, ZNF655 / Fold change vs veh, ZNF655 / RFU, FAHD1 / Fold change vs veh, FAHD1 / RFU, BDP1 / Fold change vs veh, BDP1 / RFU, LRRCC1 / Fold change vs veh, LRRCC1 / RFU, ARID1A / Fold change vs veh, ARID1A / RFU, ZNF146 / Fold change vs veh, ZNF146 / RFU, ZNF330 / Fold change vs veh, ZNF330 / RFU, GPN3 / Fold change vs veh, GPN3 / RFU, C9orf123 / Fold change vs veh, C9orf123 / RFU, N4BP2L2 / Fold change vs veh, N4BP2L2 / RFU, ARFIP1 / Fold change vs veh, ARFIP1 / RFU, FAM179B / Fold change vs veh, FAM179B / RFU, BCL10 / Fold change vs veh, BCL10 / RFU, UHRF1BP1L / Fold change vs veh, UHRF1BP1L / RFU, BET1 / Fold change vs veh, BET1 / RFU, CNOT2 / Fold change vs veh, CNOT2 / RFU, ZNF268 / Fold change vs veh, ZNF268 / Fold change vs veh, ZNF507 / RFU, DGCR2 / Fold change vs veh, DGCR2 / RFU, WDSUB1 / Fold change vs veh, WDSUB1 / Fold change vs veh, HSP90B1 /// MIR3652 / RFU, ADSS / Fold change vs veh, ADSS / RFU, GK / Fold change vs veh, GK / RFU, ZNF148 / Fold change vs veh, ZNF148 / RFU, TAF9 / Fold change vs veh, TAF9 / RFU, SLC1A5 / Fold change vs veh, SLC1A5 / RFU, SLMO2 / Fold change vs veh, SLMO2 / RFU, ABCC4 / Fold change vs veh, ABCC4 / RFU, LOC101060439 /// RAP1B / Fold change vs veh, LOC101060439 /// RAP1B / RFU, RFX7 / Fold change vs veh, RFX7 / RFU, GTPBP10 / Fold change vs veh, GTPBP10 / RFU, CNEP1R1 / Fold change vs veh, CNEP1R1 / RFU, BIVM-ERCC5 /// ERCC5 / Fold change vs veh, BIVM-ERCC5 /// ERCC5 / RFU, ILF3 / Fold change vs veh, ILF3 / RFU 11762660_at / Fold change /veh 11762660_at / RFU VCAN (11757783_s_at) / Fold change /veh VCAN (11757783_s_at) / RFU DDX43 (11728927_at) / Fold change /veh DDX43 (11728927_at) / RFU KRT8 (11758188_x_at) / Fold change /veh KRT8 (11758188_x_at) / RFU NKD1 (11759106_at) / Fold change /veh NKD1 (11759106_at) / RFU SRD5A1 (11742802_a_at) / Fold change /veh SRD5A1 (11742802_a_at) / RFU TPSAB1 /// TPSB2 (11721975_s_at) / Fold change /veh TPSAB1 /// TPSB2 (11721975_s_at) / RFU GSTM3 (11746129_a_at) / Fold change /veh GSTM3 (11746129_a_at) / RFU IL23R (11737362_x_at) / Fold change /veh IL23R (11737362_x_at) / RFU TMEM51 (11727254_a_at) / Fold change /veh TMEM51 (11727254_a_at) / RFU PIWIL2 (11732686_x_at) / Fold change /veh PIWIL2 (11732686_x_at) / RFU ORM1 (11744905_x_at) / Fold change /veh ORM1 (11744905_x_at) / RFU CCDC152 (11743942_at) / Fold change /veh CCDC152 (11743942_at) / RFU ECM1 (11717891_a_at) / Fold change /veh ECM1 (11717891_a_at) / RFU IL23R (11748794_a_at) / Fold change /veh IL23R (11748794_a_at) / RFU TNFAIP8L3 (11732012_x_at) / Fold change /veh TNFAIP8L3 (11732012_x_at) / RFU MBOAT4 (11741988_at) / Fold change /veh MBOAT4 (11741988_at) / RFU 11764193_at / Fold change /veh 11764193_at / RFU TMEM53 (11763286_at) / Fold change /veh TMEM53 (11763286_at) / RFU MAGEB2 (11727129_at) / Fold change /veh MAGEB2 (11727129_at) / RFU TMEM200A (11744735_a_at) / Fold change /veh TMEM200A (11744735_a_at) / RFU CCDC152 (11751479_a_at) / Fold change /veh CCDC152 (11751479_a_at) / RFU FAM211A (11726209_a_at) / Fold change /veh FAM211A (11726209_a_at) / RFU RGS16 (11746705_a_at) / Fold change /veh RGS16 (11746705_a_at) / RFU VCAN (11755009_s_at) / Fold change /veh VCAN (11755009_s_at) / RFU RHOB (11743442_s_at) / Fold change /veh RHOB (11743442_s_at) / RFU RGS16 (11720943_a_at) / Fold change /veh RGS16 (11720943_a_at) / RFU RGS16 (11720944_at) / Fold change /veh RGS16 (11720944_at) / RFU, VPS4B / Fold change vs veh, VPS4B / RFU, CREB1 / Fold change vs veh, CREB1 / RFU, DNAJC13 / Fold change vs veh, DNAJC13 / RFU, GNAQ / Fold change vs veh, GNAQ / RFU, CDK5R1 / Fold change vs veh, CDK5R1 / RFU, ZRANB3 / Fold change vs veh, ZRANB3 / RFU, CUL4A / Fold change vs veh, CUL4A / RFU, CCNY / Fold change vs veh, CCNY / RFU, UFL1 / Fold change vs veh, UFL1 / RFU, COG3 / Fold change vs veh, COG3 / RFU, DIAPH2 / Fold change vs veh, DIAPH2 / RFU, SKA2 / Fold change vs veh, SKA2 / RFU, AFF3 / Fold change vs veh, AFF3 / RFU, LMF1 / Fold change vs veh, LMF1 / RFU, IPO11 / Fold change vs veh, IPO11 / RFU, DFFB / Fold change vs veh, DFFB / RFU, FOXP1 / Fold change vs veh, FOXP1 / RFU, CARD8 / Fold change vs veh, CARD8 / RFU, STRN3 / Fold change vs veh, STRN3 / RFU, ADK / Fold change vs veh, ADK / RFU, RASSF2 / Fold change vs veh, RASSF2 / RFU, WIPF1 / Fold change vs veh, WIPF1 / RFU, LARP1B / Fold change vs veh, LARP1B / RFU, RASA1 / Fold change vs veh, RASA1 / RFU, RB1 / Fold change vs veh, RB1 / RFU, PPFIA1 / Fold change vs veh, PPFIA1 / RFU, MAT2A / Fold change vs veh, MAT2A / RFU, CCT5 / Fold change vs veh, CCT5 / RFU, WDR92 / Fold change vs veh, WDR92 / RFU, CUX1 / Fold change vs veh, CUX1 / RFU, TTC7A / Fold change vs veh, TTC7A / RFU, TMEM135 / Fold change vs veh, TMEM135 / RFU, DEPTOR / Fold change vs veh, DEPTOR / RFU, CPM / Fold change vs veh, CPM / RFU, DNAJB6 / Fold change vs veh, DNAJB6 / RFU, CACNA2D3 / Fold change vs veh, CACNA2D3 / RFU, DTX4 / Fold change vs veh, DTX4 / RFU, TFCP2 / Fold change vs veh, TFCP2 / RFU, GMCL1 /// GMCL1P1 / Fold change vs veh, GMCL1 /// GMCL1P1 / RFU, AEBP2 / Fold change vs veh, AEBP2 / RFU, SNHG1 /// SNORD22 /// SNORD25 /// SNORD26 /// SNORD27 /// SNORD28 /// SNORD29 /// SNORD31 / Fold change vs veh, SNHG1 /// SNORD22 /// SNORD25 /// SNORD26 /// SNORD27 /// SNORD28 /// SNORD29 /// SNORD31 / Fold change (Aza/veh), C12orf56 (ProbeSet 11735607_a_at) / Fold change (ACY-1035/veh), C12orf56 (ProbeSet 11735607_a_at) / Fold change (Aza/veh), FGFR1OP (ProbeSet 11751329_s_at) / Fold change (ACY-1035/veh), FGFR1OP (ProbeSet 11751329_s_at) / Fold change (Aza/veh), VPS36 (ProbeSet 11739960_a_at) / Fold change (ACY-1035/veh), VPS36 (ProbeSet 11739960_a_at) / RFU SYPL1 (11715823_x_at) / Fold change /veh SYPL1 (11715823_x_at) / RFU IGFBP7 (11715501_s_at) / Fold change /veh IGFBP7 (11715501_s_at) / RFU REEP3 (11722064_at) / Fold change /veh REEP3 (11722064_at) / RFU IGLL1 (11728026_x_at) / Fold change /veh IGLL1 (11728026_x_at): dose or concentration left out as unconfirmed
Conditions: ProbeSet 11743286_at; LIST D

Compound: Nc1ncn([C@@H]2O[C@H](CO)[C@@H](O)[C@H]2O)c(=O)n1 [azacitidine]
- Fold change vs veh, DTX4: 0.59
